# Measured values as given in patent US4620014A, “2-furylbutyrolactones and methods for using same” (priority 1983, dated 1986).
# Like-named read-outs stand apart in the source and are kept apart here.
# Key:
# [1] = test system: spleen lymphocytes of KLH-immunized C57BL/6 mice; details: for Lymphocyte Stimulation Index, Con-A / Lymphocyte Stimulation Index, Control (no mitogen) / Lymphocyte Stimulation Index, PHA: day 17
# From the text: (§1) The effect of the compounds of this invention on the immune response to specific antigens involves immunization of mice with specific anitgens such as bovine serum albumin (BSA) or keyhole limpet hemocyanin (KLH). Following immunization, it is possible to assess the cell-mediated or humoral (antibody) immune response to these antigens by various methods:
# (§2) (1) Lymphocyte stimulation assays can be performed using varying concentrations of the specific antigens as mitogens in the lymphocyte stimulation microculture system described above. The only difference is that the incubation period is extended to five days instead of three as for the polyclonal mitogens.
# Mice of the C57BL/6 strain are given i.p. injections of either 50, 100, 200 or 400 mg/kg of Cpd. 1 or buffer for ten days (days 1-10). An antigen, keyhole limpet hemocyanin (KLH), is administered intraperitoneally with Freund's Complete Adjuvant (FCA) on days 1, 7, and 13. Blood samples are taken for assay of the antibody response on days 0, 5, 12, and 17. Spleens are removed, lymphocytes isolated and a lymphocyte stimulation assay with PHA, Con-A or KLH antigen as the mitogens is performed on day 17 of the experiment.
# L-1210 leukemia = experiment: Anti-cancer study, L-1210 leukemia in BDF1 mice; format: in vivo, mouse; details: seven days
# From the text: Mice of the BDF1 strain are given an i.p. inoculation of 10^6 L-1210 leukemia cells on day 0. Twenty-four hours later, groups of 7 mice each are started on a […] treatment regimen of various doses of the compounds of this invention. The experiment is continued according to the guidelines provided under the National Cancer Institute protocol for screening new anti-cancer agents and T/C ratios (median or mean survival time of treated groups over median or mean survival time of controls) are calculated. A T/C value ≥1.25 (or 125%) is considered significant anticancer activity.
# (§3) Mice of the BDF1 strain, inoculated with L-1210 leukemia cells, are treated for seven days with either 25, 50, 100, 200 or 400 mg/kg of Cpd. 1 or just buffer. The National Cancer Institute protocol for screening new anti-cancer agents is followed and T/C ratios are calculated.
# as §3, with “either 100” for “either 25, 50, 100, 200 or 400”, “Cpd. 1, 20 mg/kg of 5-fluorouracil (5-FU), a known anti-cancer agent,” for “Cpd. 1”
# [2] = test system: spleen lymphocytes of BSA-immunized C57BL/6 mice
# From the text: as §1, §2
# Mice of the C57BL/6 strain are given i.p. injections of either 50, 100, 200 or 400 mg/kg of Cpd. 1 or buffer for twelve days (days 1-12). An antigen, bovine serum albumin (BSA), is administered intraperitoneally with Freund's Complete Adjuvant (FCA) on days 1, 7 and 14. Blood samples are taken for assay of the antibody response on days 0, 5, 13, and 19.
smiles,measurement,setting,value
Cc1ccc(C2(O)C(=O)OC3C(O)COC32O)o1.Cc1ccc(C2(O)C(=O)OC3C(O)COC32O)o1.O=C1CCC(=O)O1 (stereo not shown) [Cpd. 1],"Lymphocyte Stimulation Index, Con-A",[1]; 50 mg/kg i.p.,19.0
same,"Lymphocyte Stimulation Index, Control (no mitogen)",[1]; 50 mg/kg i.p.,0.976
same,"Lymphocyte Stimulation Index, PHA",[1]; 50 mg/kg i.p.,7.65
same,"Lymphocyte Stimulation Index, KLH","[1]; 50 mg/kg i.p., day 17, KLH 0.025 μg/well",0.0386
same,"Lymphocyte Stimulation Index, KLH","[1]; 50 mg/kg i.p., day 17, KLH 0.5 μg/well (first 0.5 column)",0.415
same,"Lymphocyte Stimulation Index, KLH","[1]; 50 mg/kg i.p., day 17, KLH 0.5 μg/well (second 0.5 column)",0.357
same,"Lymphocyte Stimulation Index, KLH","[1]; 50 mg/kg i.p., day 17, KLH 1.0 μg/well",0.536
same,"Lymphocyte Stimulation Index, Con-A",[1]; 100 mg/kg i.p.,15.6
same,"Lymphocyte Stimulation Index, Control (no mitogen)",[1]; 100 mg/kg i.p.,0.961
same,"Lymphocyte Stimulation Index, PHA",[1]; 100 mg/kg i.p.,9.12
same,"Lymphocyte Stimulation Index, KLH","[1]; 100 mg/kg i.p., day 17, KLH 0.025 μg/well",0.401
same,"Lymphocyte Stimulation Index, KLH","[1]; 100 mg/kg i.p., day 17, KLH 0.5 μg/well (first 0.5 column)",0.734
same,"Lymphocyte Stimulation Index, KLH","[1]; 100 mg/kg i.p., day 17, KLH 0.5 μg/well (second 0.5 column)",0.526
same,"Lymphocyte Stimulation Index, KLH","[1]; 100 mg/kg i.p., day 17, KLH 1.0 μg/well",0.898
same,"Lymphocyte Stimulation Index, Con-A",[1]; 200 mg/kg i.p.,51.7
same,"Lymphocyte Stimulation Index, Control (no mitogen)",[1]; 200 mg/kg i.p.,1.73
same,"Lymphocyte Stimulation Index, PHA",[1]; 200 mg/kg i.p.,12.4
same,"Lymphocyte Stimulation Index, KLH","[1]; 200 mg/kg i.p., day 17, KLH 0.025 μg/well",3.91
same,"Lymphocyte Stimulation Index, KLH","[1]; 200 mg/kg i.p., day 17, KLH 0.5 μg/well (first 0.5 column)",4.26
same,"Lymphocyte Stimulation Index, KLH","[1]; 200 mg/kg i.p., day 17, KLH 0.5 μg/well (second 0.5 column)",1.02
same,"Lymphocyte Stimulation Index, KLH","[1]; 200 mg/kg i.p., day 17, KLH 1.0 μg/well",7.45
same,lymphocyte DNA synthesis,"[1]; 200 mg/kg, day 17, Con-A or KLH",statistically significant increase in lymphocyte DNA synthesis
same,"Lymphocyte Stimulation Index, Con-A",[1]; 400 mg/kg i.p.,35.5
same,"Lymphocyte Stimulation Index, Control (no mitogen)",[1]; 400 mg/kg i.p.,0.840
same,"Lymphocyte Stimulation Index, PHA",[1]; 400 mg/kg i.p.,2.32
same,"Lymphocyte Stimulation Index, KLH","[1]; 400 mg/kg i.p., day 17, KLH 0.025 μg/well",1.03
same,"Lymphocyte Stimulation Index, KLH","[1]; 400 mg/kg i.p., day 17, KLH 0.5 μg/well (first 0.5 column)",0.232
same,"Lymphocyte Stimulation Index, KLH","[1]; 400 mg/kg i.p., day 17, KLH 0.5 μg/well (second 0.5 column)",0.667
same,"Lymphocyte Stimulation Index, KLH","[1]; 400 mg/kg i.p., day 17, KLH 1.0 μg/well",0.589
same,Median Survival Time,L-1210 leukemia; 25 mg/kg,20 days
same,Median Survival Time,L-1210 leukemia; 50 mg/kg,21 days
same,Median Survival Time,L-1210 leukemia; 100 mg/kg,30 days
same,Median Survival Time,L-1210 leukemia; 200 mg/kg,30 days
same,Median Survival Time,L-1210 leukemia; 400 mg/kg,25 days
same,Lymphocyte Stimulation Index,"[2]; 50 mg/kg i.p., day 13, BSA 0 μg/well",16.5
same,Lymphocyte Stimulation Index,"[2]; 50 mg/kg i.p., day 13, BSA 0.01 μg/well",19.9
same,Lymphocyte Stimulation Index,"[2]; 50 mg/kg i.p., day 13, BSA 0.1 μg/well",23.1
same,Lymphocyte Stimulation Index,"[2]; 50 mg/kg i.p., day 13, BSA 0.5 μg/well",22.9
same,Lymphocyte Stimulation Index,"[2]; 50 mg/kg i.p., day 13, BSA 1 μg/well",18.2
same,Lymphocyte Stimulation Index,"[2]; 50 mg/kg i.p., day 19, BSA 0 μg/well",.26
same,Lymphocyte Stimulation Index,"[2]; 50 mg/kg i.p., day 19, BSA 0.01 μg/well",2.33
same,Lymphocyte Stimulation Index,"[2]; 50 mg/kg i.p., day 19, BSA 0.1 μg/well",2.27
same,Lymphocyte Stimulation Index,"[2]; 50 mg/kg i.p., day 19, BSA 0.5 μg/well",2.37
same,Lymphocyte Stimulation Index,"[2]; 50 mg/kg i.p., day 19, BSA 1.0 μg/well",2.63
same,DNA synthesis compared to controls,"[2]; 50 mg/kg, day 13",significant stimulation of DNA synthesis
same,DNA synthesis effect,"[2]; 50 mg/kg, day 19",waned
same,Lymphocyte Stimulation Index,"[2]; 100 mg/kg i.p., day 13, BSA 0 μg/well",3.22
same,Lymphocyte Stimulation Index,"[2]; 100 mg/kg i.p., day 13, BSA 0.01 μg/well",9.8
same,Lymphocyte Stimulation Index,"[2]; 100 mg/kg i.p., day 13, BSA 0.1 μg/well",11.9
same,Lymphocyte Stimulation Index,"[2]; 100 mg/kg i.p., day 13, BSA 0.5 μg/well",12.3
same,Lymphocyte Stimulation Index,"[2]; 100 mg/kg i.p., day 13, BSA 1 μg/well",10.2
same,Lymphocyte Stimulation Index,"[2]; 100 mg/kg i.p., day 19, BSA 0 μg/well",4.1
same,Lymphocyte Stimulation Index,"[2]; 100 mg/kg i.p., day 19, BSA 0.01 μg/well",3.79
same,Lymphocyte Stimulation Index,"[2]; 100 mg/kg i.p., day 19, BSA 0.1 μg/well",2.68
same,Lymphocyte Stimulation Index,"[2]; 100 mg/kg i.p., day 19, BSA 0.5 μg/well",2.03
same,Lymphocyte Stimulation Index,"[2]; 100 mg/kg i.p., day 19, BSA 1.0 μg/well",.26
same,Lymphocyte Stimulation Index,"[2]; 200 mg/kg i.p., day 13, BSA 0 μg/well",10.6
same,Lymphocyte Stimulation Index,"[2]; 200 mg/kg i.p., day 13, BSA 0.01 μg/well",14.1
same,Lymphocyte Stimulation Index,"[2]; 200 mg/kg i.p., day 13, BSA 0.1 μg/well",15.8
same,Lymphocyte Stimulation Index,"[2]; 200 mg/kg i.p., day 13, BSA 0.5 μg/well",13.8
same,Lymphocyte Stimulation Index,"[2]; 200 mg/kg i.p., day 13, BSA 1 μg/well",14.0
same,Lymphocyte Stimulation Index,"[2]; 200 mg/kg i.p., day 19, BSA 0 μg/well",0.42
same,Lymphocyte Stimulation Index,"[2]; 200 mg/kg i.p., day 19, BSA 0.01 μg/well",2.94
same,Lymphocyte Stimulation Index,"[2]; 200 mg/kg i.p., day 19, BSA 0.1 μg/well",2.82
same,Lymphocyte Stimulation Index,"[2]; 200 mg/kg i.p., day 19, BSA 0.5 μg/well",2.56
same,Lymphocyte Stimulation Index,"[2]; 200 mg/kg i.p., day 19, BSA 1.0 μg/well",2.12
same,Lymphocyte Stimulation Index,"[2]; 400 mg/kg i.p., day 13, BSA 0 μg/well",10.9
same,Lymphocyte Stimulation Index,"[2]; 400 mg/kg i.p., day 13, BSA 0.01 μg/well",13.7
same,Lymphocyte Stimulation Index,"[2]; 400 mg/kg i.p., day 13, BSA 0.1 μg/well",12.8
same,Lymphocyte Stimulation Index,"[2]; 400 mg/kg i.p., day 13, BSA 0.5 μg/well",12.3
same,Lymphocyte Stimulation Index,"[2]; 400 mg/kg i.p., day 13, BSA 1 μg/well",13.8
same,Lymphocyte Stimulation Index,"[2]; 400 mg/kg i.p., day 19, BSA 0 μg/well",5.0
same,Lymphocyte Stimulation Index,"[2]; 400 mg/kg i.p., day 19, BSA 0.01 μg/well",3.26
same,Lymphocyte Stimulation Index,"[2]; 400 mg/kg i.p., day 19, BSA 0.1 μg/well",2.89
same,Lymphocyte Stimulation Index,"[2]; 400 mg/kg i.p., day 19, BSA 0.5 μg/well",1.94
same,Lymphocyte Stimulation Index,"[2]; 400 mg/kg i.p., day 19, BSA 1.0 μg/well",1.04
